{"source": "patent US20260216239A1", "about": "(Arizona Board of Regents on Behalf of the University of …, priority 2020, published 2026)", "key": {"[1]": {"system": "Bothrops moojeni venom", "experiment": "Thrombelastography in human plasma of venom procoagulant activity after isolated exposure of venom to compounds", "type": "biochemical", "settings": "venom exposed to 100 μM carboplatin, 1 mM CORM-2 or both; venom 2 μg/ml in plasma", "method": "(§1) Thrombelastographic analyses. The volumes of subsequently described plasmatic and other additives summed to a final volume of 360 μl. Samples were composed of 320 μl of plasma; 16.4 μl of PBS, 20 μl of 200 mM CaCl2), and 3.6 μl of PBS or venom mixture, which were pipetted into a disposable cup in a Thrombelastograph® hemostasis system (Model 5000, Haemonetics Inc., Braintree, MA, USA) at 37° C., and then rapidly mixed by moving the cup up against and then away from the plastic pin five times. The following viscoelastic parameters described previously (see, Nielsen V G (2019) J Thromb Thrombolysis 47, 73-79; Gessner G, et al., (2017) Eur J Pharmacol 815, 33-41; Nielsen V G, Wagner M T, Frank N (2020) Int J Mol Sci 21, 2082; Lazić D, Arsenijević A, Puchta R, Bugarčić ŽD, Rilak A (2016) Dalton Trans 45, 4633; Hanif M, et al., (2017) ChemPlusChem 82, 841-847) were measured: time to maximum rate of thrombus generation (TMRTG): this is the time interval (minutes) observed prior to maximum speed of clot growth; maximum rate of thrombus generation (MRTG): this is the maximum velocity of clot growth observed (dynes/cm^2/second); and total thrombus generation (TTG, dynes/cm^2), the final viscoelastic resistance observed after clot formation.\n(§2) B. moojeni. This venom was exposed to 0 or 1 mM CORM-2 in the presence of 0 or 100 μM RuCl3 in PBS for at least 5 minutes at room temperature prior to placement into plasma followed immediately with commencement of thrombelastographic analysis. The final concentration of this venom in plasma was 2 μg/ml.\n(§3) Given the aforementioned, the experimental conditions utilized were: 1) V condition—venom in PBS; 2) Ru(II) condition—venom exposed to CORM-2; 3) Ru(III) condition—venom exposed to RuCl3; 4) Ru(II+III) condition—venom exposed to CORM-2 and RuCl3 simultaneously. After the 5 minute period at room temperature, 3.6 μl of one of these solutions was added to the plasma sample in the plastic thrombelastograph cup.\n(§4) The volumes of subsequently described plasmatic and other additives summed to a final volume of 360 μl. Samples were composed of 320 μl of plasma; 16.4 μl of PBS, 20 μl of 200 mM CaCl2), and 3.6 μl of PBS or venom mixture, which were pipetted into a disposable cup in a Thrombelastograph® hemostasis system (Model 5000, Haemonetics Inc., Braintree, MA, USA) at 37° C., and then rapidly mixed by moving the cup up against and then away from the plastic pin five times. The following viscoelastic parameters described previously (see, Nielsen, V. G. J Thromb Thrombolysis 2019, 47, 73-79; Gessner, G.; et al., Eur J Pharmacol 2017, 815, 33-41; Nielsen, V. G.; Wagner, M. T.; Frank, N. Int J Mol Sci 2020, 21, 2082; Lazid, D.; et al., Dalton Trans 2016, 45, 4633; Hanif, M.; et al., ChemPlusChem 2017, 82, 841-847) were measured: time to maximum rate of thrombus generation (TMRTG): this is the time interval (minutes) observed prior to maximum speed of clot growth; maximum rate of thrombus generation (MRTG): this is the maximum velocity of clot growth observed (dynes/cm2/second); and total thrombus generation (TTG, dynes/cm2), the final viscoelastic resistance observed after clot formation.\nas §2, with “CORM-2 or CORM-3” for “CORM-2”, “analysis. This venom was also exposed to 0 or 1 mM CORM-2 in the presence of 0 or 100 μM carboplatin in another series of experiments.” for “analysis.”\nGiven the aforementioned, the experimental conditions utilized were: 1) V condition—venom in PBS; 2) Ru(II) condition—venom exposed to CORM-2 or CORM-3; 3) Ru(III) condition—venom exposed to RuCl3; 4) Ru(II+III) condition—venom exposed to CORM-2 or CORM-3 and RuCl3 simultaneously; 5) Pt(II) condition—venom exposed to carboplatin; and 6) Pt+Ru condition—venom exposed to carboplatin and CORM-2."}, "[2]": {"system": "Calloselasma rhodostoma venom", "experiment": "Thrombelastography in human plasma of venom procoagulant activity after isolated exposure of venom to compounds", "type": "biochemical", "settings": "venom exposed to 100 μM carboplatin, 100 μM CORM-2 or both; venom 5 μg/ml in plasma", "method": "as §1\nC. rhodostoma. […] The final concentration of this venom in plasma was 5 μg/ml.\nas §3, §4\nC. rhodostoma. […] This venom was also exposed to 0 or 100 μM CORM-2 in the presence of 0 or 100 μM carboplatin in another series of experiments. The final concentration of this venom in plasma was 5 μg/ml."}}}
{"smiles": "N.N.O=C([O-])C1(C(=O)[O-])CCC1.[Pt+2]", "note": "[carboplatin, reference compound]", "values": [{"measurement": "coagulation kinetic parameters", "setting": "[1]", "result": "no significant change in any of the coagulation kinetic parameters"}, {"measurement": "procoagulant activity of venom", "setting": "[2]", "result": "no significant effect"}]}
